Experimental data taken from publication PMC4869338 (Malaria Journal, 2016).
Where “and” joins values, the source holds several entries; their conditions need not be identical. Identical values can stand only once. Entries after “also recorded” stand apart in the source; their conditions may differ. Like-named read-outs stand apart in the source and are kept apart here.

Assays:
[1] = humans; cited from earlier work
[2] = biological target: T1, Recombinant human CYP 2D6 (Homo sapiens, UniProt P10635); assay: biochemical
T1 sequence (P10635 whole entry): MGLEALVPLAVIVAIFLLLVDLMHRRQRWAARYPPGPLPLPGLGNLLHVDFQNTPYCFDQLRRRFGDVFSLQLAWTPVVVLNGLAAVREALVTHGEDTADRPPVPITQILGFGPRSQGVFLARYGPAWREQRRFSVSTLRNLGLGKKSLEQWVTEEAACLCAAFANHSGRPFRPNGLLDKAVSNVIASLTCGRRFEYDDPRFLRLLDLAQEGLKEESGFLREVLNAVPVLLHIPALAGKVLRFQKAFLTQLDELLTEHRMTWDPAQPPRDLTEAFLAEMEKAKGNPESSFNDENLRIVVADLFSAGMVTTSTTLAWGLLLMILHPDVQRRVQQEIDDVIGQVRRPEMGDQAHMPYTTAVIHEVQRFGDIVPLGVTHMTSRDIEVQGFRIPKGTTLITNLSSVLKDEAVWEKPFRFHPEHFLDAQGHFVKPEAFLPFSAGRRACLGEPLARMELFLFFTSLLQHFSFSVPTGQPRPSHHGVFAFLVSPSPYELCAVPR
Protocol: The samples were centrifuged at 15,700×g at 4 °C for 10 min, supernatants collected and analysed by liquid chromatography/tandem mass spectrometry (LC–MS/MS).
Analyte peaks were detected and quantified using a TSQ Quantum triple quadrupole mass spectrometer (Thermo Fisher Scientific, Waltham, MA, USA). Mass spectrometry conditions were optimized for each analyte (see Additional file 1 for masses and ion transitions). […] Samples were analysed with electrospray ionization in positive ion mode (source temperature 350 °C) by selected reaction monitoring at a collision pressure of 1.0 mTorr. Analyte peaks were detected and quantified using the Xcalibur software package.

[3] = cited from earlier work
[4] = test system: CYP2D6; details: cited from earlier work
[5] = test system: CYP3A4; details: cited from earlier work
[6] = test system: CYP1A2; design: method as in PMID 18691982; details: cited from earlier work
[7] = test system: Plasmodium berghei sporozoites
Text: Drug suspensions were made and transferred to a 20-ml bottle, drawn into a 1-ml syringe, and delivered via oral feeder (18 gauge) to the designated recipient. […] Both liver and blood stages of P. berghei infections were monitored using the in vivo imaging system (IVIS) and flow cytometry as described in [29].

[8] = test system: CYP2C19; details: cited from earlier work
[9] = test system: CYP2C9; design: method as in PMID 18691982; details: cited from earlier work
[10] = cited from earlier work; remark: listed apart in the source
[11] = test system: CYP 2D6; details: in vivo; cited from earlier work
[12] = test system: primary human hepatocytes; details: 240-min incubation; previously reported; cited from earlier work
[13] = biological target: T1, Recombinant human CYP 2D6; details: sixty-minute incubation; previously reported; cited from earlier work
[14] = Mouse oral pharmacokinetics of primaquine and 5,6-orthoquinone with and without fluoxetine; details: mice; oral primaquine 20 mg/kg; fluoxetine 4 mg/kg/day for 3 days
Protocol: Analyte peaks were detected and quantified using a TSQ Quantum triple quadrupole mass spectrometer (Thermo Fisher Scientific, Waltham, MA, USA). […] Chromatographic separations were achieved using a Waters XTerra MS C18 (2.1 × 50 mm, 3.5 μm) column (Milford, MA, USA) with a Phenomenex (4 × 20 mm, 3.5 µm) guard column (Torrance, CA, USA) at a flow rate of 0.35 ml/min. A 7-min linear gradient from 5 to 95 % acetonitrile (0.1 % formic acid) was utilized. Samples were analysed with electrospray ionization in positive ion mode (source temperature 350 °C) by selected reaction monitoring at a collision pressure of 1.0 mTorr. Analyte peaks were detected and quantified using the Xcalibur software package.
Briefly, male, 9–12-weeks old, wild-type, C57BL/6 mice (Taconic Biosciences, Germantown, NY, USA) were used for pharmacokinetic evaluations. On arrival, animals were acclimated for 7 days in quarantine. The animals were housed in a cage maintained at a temperature range of 18–26 °C, 34–68 % relative humidity and a 12-h light/dark cycle. Food and water were provided ad libitum during quarantine and throughout the study. The animals were fed a standard rodent maintenance diet.
Pharmacokinetic studies were performed using oral administration. […] For each timepoint, animals were euthanized and plasma and liver samples collected. […] Supernatant was collected and analysed by LC–MS/MS analyses.

[15] = test system: primary human hepatocytes; assay: Primaquine metabolism in pooled primary human hepatocytes pre-treated with antidepressants; type: in vitro ADME; details: antidepressant 10 μM pre-treatment 15 min; primaquine 1 μM; 4-h incubation
Protocol: Cryopreserved, pooled, human, primary hepatocytes were flash thawed in a 37 °C bath for 1 min. One vial of the thawed hepatocytes (5 million cells/vial) was added to 40 ml of pre-warmed thawing buffer, mixed thoroughly by gentle pipetting, and centrifuged at 72×g for 6 min. The supernatant was then aspirated and the pellet resuspended in hepatocyte incubation buffer (InVitroGRO HI media, BioreclamationIVT, Baltimore, MD, USA). The hepatocytes were then seeded onto 12-well culture plates, approximately 7 × 10^5 hepatocytes/ml per well, and incubated in a humidified 5 % CO2/95 % air incubator for 30 min prior to the addition of compounds.
All reactions were stopped by adding an equal volume of acetonitrile. […] The supernatant was collected and 200 μl of sample was loaded on to a 96-well LC–MS/MS plate for analysis. Samples were analysed immediately after sample collection.

Structure (SMILES): CCN(CC)CCCC(C)Nc1ccnc2cc(Cl)ccc12 (stereo not drawn) [chloroquine]
- primaquine exposure on co-administration [1]: significantly higher primaquine exposure

Structure (SMILES): CN(C)CCCC1(c2ccc(F)cc2)OCc2cc(C#N)ccc21 (stereo not drawn) [citalopram]
- IC50 [2]: 9.28 µM
- Enzymes involved in biotransformation [3]: CYP2C19, CYP2D6, and CYP3A4
- Enzymes inhibited by antidepressant: CYP2D6 [4]: CYP2D6 (weak)

Structure (SMILES): CN(C)CC(c1ccc(O)cc1)C1(O)CCCCC1 (stereo not drawn) [desvenlafaxine]
- Enzymes inhibited by antidepressant: CYP3A4 [5]: CYP3A4 (weak)
- IC50 [2]: ~94 µM and 94.3 µM

Structure (SMILES): CN(C)CCC[C@@]1(c2ccc(F)cc2)OCc2cc(C#N)ccc21 [escitalopram]
- IC50 [2]: 7.35 µM
- Enzymes involved in biotransformation [3]: CYP2C19, CYP2D6, and CYP3A4
- Enzymes inhibited by antidepressant: CYP2D6 [4]: CYP2D6 (weak)

Structure (SMILES): CNCCC(Oc1ccc(C(F)(F)F)cc1)c1ccccc1 (stereo not drawn) [fluoxetine]
- Enzymes inhibited by antidepressant: CYP3A4 [5]: weak to moderate
- Enzymes involved in biotransformation [3]: CYP2D6, CYP2C9, CYP2C19, and CYP3A4
- Enzymes inhibited by antidepressant: CYP1A2 [6]: weak
- effect of fluoxetine co-administration on primaquine anti-malarial efficacy ([7]; fluoxetine 4 mg/kg/day for 5 days with primaquine 20 mg/kg/day for 3 days): reduced primaquine anti-malarial efficacy; also recorded: negatively impacted primaquine efficacy
- Enzymes inhibited by antidepressant: CYP2C19 [8]: CYP2D6 (strong), CYP2C9 (moderate), CYP2C19, (weak to moderate), CYP3A4 (weak to moderate), CYP1A2 (weak)
- Enzymes inhibited by antidepressant: CYP2C9 [9]: moderate
- elimination half-life [10]: long
- Enzymes inhibited by antidepressant: CYP2D6 [4]: strong
- change of CYP 2D6 phenotype of human subjects [11]: from extensive to poor metabolizers

Structure (SMILES): NCCC(Oc1ccc(C(F)(F)F)cc1)c1ccccc1 (stereo not drawn) [nor-fluoxetine]
- elimination half-life ([10]; in vivo): long
- CYP 2D6 inhibition by major metabolite of fluoxetine ([4]; no reference given): potent CYP 2D6 inhibitor

Structure (SMILES): Fc1ccc([C@@H]2CCNC[C@H]2COc2ccc3c(c2)OCO3)cc1 [paroxetine]
- Enzymes inhibited by antidepressant: CYP3A4 [5]: CYP2D6 (strong), CYP1A2 (weak), CYP2C9 (weak), CYP2C19 (weak), CYP3A4 (weak)
- Enzymes involved in biotransformation [3]: CYP2D6 and CYP3A4
- Enzymes inhibited by antidepressant: CYP1A2 [6]: CYP2D6 (strong), CYP1A2 (weak), CYP2C9 (weak), CYP2C19 (weak), CYP3A4 (weak)
- Enzymes inhibited by antidepressant: CYP2C19 [8]: CYP2D6 (strong), CYP1A2 (weak), CYP2C9 (weak), CYP2C19 (weak), CYP3A4 (weak)
- Enzymes inhibited by antidepressant: CYP2C9 [9]: CYP2D6 (strong), CYP1A2 (weak), CYP2C9 (weak), CYP2C19 (weak), CYP3A4 (weak)
- Enzymes inhibited by antidepressant: CYP2D6 [4]: CYP2D6 (strong), CYP1A2 (weak), CYP2C9 (weak), CYP2C19 (weak), CYP3A4 (weak)

Structure (SMILES): COc1cc(NC(C)CCCN)c2ncccc2c1 (stereo not drawn) [primaquine]
- primaquine metabolism signal in hepatocytes [12]: ~ 40%
- blood stage parasitaemia status throughout the 31-day experiment ([7]; flow cytometry, P. berghei infected mice): parasitaemia-free
- primaquine metabolism signal by CYP 2D6 [13]: > 80%
- pharmacokinetics of parent primaquine upon co-administration with fluoxetine [14]: not drastically altered

Structure (SMILES): CN[C@H]1CC[C@@H](c2ccc(Cl)c(Cl)c2)c2ccccc21 [sertraline]
- IC50 [2]: 4.35 µM
- Enzymes involved in biotransformation [3]: CYP2C9, CYP2C19, CYP2D6, and CYP3A4
- Enzymes inhibited by antidepressant: CYP2C9 [9]: CYP2D6 (weak to moderate), CYP1A2 (weak), CYP2C9 (weak), CYP2C19 (weak), CYP3A4 (weak)

Structure (SMILES): COc1ccc(C(CN(C)C)C2(O)CCCCC2)cc1 (stereo not drawn) [venlafaxine]
- inhibition of primaquine metabolism in hepatocytes [15]: no inhibition of primaquine metabolism
- IC50 [2]: 19.1 µM
- Enzymes inhibited by antidepressant: CYP2D6 [4]: CYP2D6 (weak)
